{"source": "patent US20250154108A1", "about": "(priority 2022, published 2025)", "assay": "in vivo", "set-up": "species or system SD rats", "conditions": "male, SD, rat, plasma, po, 1 mg/kg; read-out: Bioavailability F"}
{"smiles": "C[C@H](NC1=CC(=O)C2(CCCC2)C(=O)N1)c1cc(F)ccc1F", "note": "[Compound of formula (I)]", "values": [{"measurement": "bioavailability", "value": 123, "unit": "%"}]}
